One experiment has as its target PI3K delta (Homo sapiens (Human), UniProt O00329). The experiment can be described thus: Enzymatic PI3K delta isoform inhibition (lipid kinase activity, Kinase-Glo luminescence). Type of experiment: biochemical. The note with it: Enzymatic assay. The protocol: (§1) 1.1 Test of Lipid Kinase Activity […]
(§2) In a more preferred assay, the kinase reaction is performed in a final volume of 10 μl per well of a low volume non-binding CORNING, 384 well black plate (Cat. No. #3676). The final concentrations of ATP and phosphatidyl inositol (PI) in the assay are 1 μM and 10 μg/mL, respectively. The reaction is started by the addition of ATP.
(§3) The components of the assay are added per well as follows:
(§4) The Z′ value is a universal measurement of the robustness of an assay. A Z′ between 0.5 and 1.0 is considered an excellent assay.
(§5) IC50 is determined by a four parameter curve fitting routine that comes along with “excel fit”. A four parameter logistic equation is used to calculate IC50 values (IDBS XLfit) of the percentage inhibition of each compound at 8 concentrations (usually 10, 3.0, 1.0, 0.3, 0.1, 0.030, 0.010 and 0.003 μM). Alternatively, IC50 values are calculated using idbsXLfit model 204, which is a 4 parameter logistic model.
(§6) Yet alternatively, for an ATP depletion assay, compounds of the formula I to be tested are dissolved in DMSO and directly distributed into a white 384-well plate at 0.5 μl per well. To start the reaction, 10 μl of 10 nM PI3 kinase and 5 μg/mL 1-alpha-phosphatidylinositol (PI) are added into each well followed by 10 μl of 2 μM ATP. The reaction is performed until approx 50% of the ATP is depleted, and then stopped by the addition of 20 μl of Kinase-Glo solution (Promega Corp., Madison, Wis., USA). The stopped reaction is incubated for 5 minutes and the remaining ATP is then detected via luminescence. IC50 values are then determined.
Background: In Kinase-Glo more light means more ATP remaining.

The target of another experiment is PI3K alpha (Homo sapiens (Human), UniProt P42336). The experiment can be described thus: Enzymatic PI3K alpha isoform inhibition (lipid kinase activity, Kinase-Glo luminescence). It counts as biochemical. To be noted: Enzymatic assay. The protocol: as §1, §2, §3, §4, §5, §6
PI3K alpha, sequence (P42336 other isoform, or with tags, fused parts or gaps): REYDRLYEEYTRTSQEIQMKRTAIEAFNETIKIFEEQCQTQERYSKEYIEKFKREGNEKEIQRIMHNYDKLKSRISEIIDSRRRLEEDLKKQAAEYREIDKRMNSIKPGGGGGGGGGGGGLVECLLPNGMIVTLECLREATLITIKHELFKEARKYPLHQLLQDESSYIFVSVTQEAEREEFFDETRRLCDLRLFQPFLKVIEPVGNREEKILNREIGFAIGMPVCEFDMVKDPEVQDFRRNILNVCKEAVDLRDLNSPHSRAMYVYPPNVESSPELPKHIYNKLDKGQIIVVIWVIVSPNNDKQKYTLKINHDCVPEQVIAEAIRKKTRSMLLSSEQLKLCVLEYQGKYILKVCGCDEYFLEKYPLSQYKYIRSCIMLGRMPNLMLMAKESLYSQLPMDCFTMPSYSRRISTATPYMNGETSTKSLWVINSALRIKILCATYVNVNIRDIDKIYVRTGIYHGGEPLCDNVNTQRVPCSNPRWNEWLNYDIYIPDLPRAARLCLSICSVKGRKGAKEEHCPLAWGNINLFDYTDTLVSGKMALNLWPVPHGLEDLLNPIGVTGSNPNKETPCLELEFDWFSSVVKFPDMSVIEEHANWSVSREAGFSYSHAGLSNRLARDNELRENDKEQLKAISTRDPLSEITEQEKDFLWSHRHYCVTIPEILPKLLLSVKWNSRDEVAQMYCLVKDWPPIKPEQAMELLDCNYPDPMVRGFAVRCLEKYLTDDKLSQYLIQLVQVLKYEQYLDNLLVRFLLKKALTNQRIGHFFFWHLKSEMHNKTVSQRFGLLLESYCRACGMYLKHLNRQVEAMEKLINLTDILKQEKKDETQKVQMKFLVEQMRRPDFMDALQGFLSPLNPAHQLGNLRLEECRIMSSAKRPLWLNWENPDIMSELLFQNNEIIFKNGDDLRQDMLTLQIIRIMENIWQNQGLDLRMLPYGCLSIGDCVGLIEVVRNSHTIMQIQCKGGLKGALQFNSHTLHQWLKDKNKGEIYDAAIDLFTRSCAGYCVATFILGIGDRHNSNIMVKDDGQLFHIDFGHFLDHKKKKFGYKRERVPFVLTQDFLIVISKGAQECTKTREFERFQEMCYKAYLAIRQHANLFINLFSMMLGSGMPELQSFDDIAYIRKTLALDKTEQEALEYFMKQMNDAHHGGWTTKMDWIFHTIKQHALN

PI3K delta, sequence (O00329 other isoform, or with tags, fused parts or gaps linker GGGGGG): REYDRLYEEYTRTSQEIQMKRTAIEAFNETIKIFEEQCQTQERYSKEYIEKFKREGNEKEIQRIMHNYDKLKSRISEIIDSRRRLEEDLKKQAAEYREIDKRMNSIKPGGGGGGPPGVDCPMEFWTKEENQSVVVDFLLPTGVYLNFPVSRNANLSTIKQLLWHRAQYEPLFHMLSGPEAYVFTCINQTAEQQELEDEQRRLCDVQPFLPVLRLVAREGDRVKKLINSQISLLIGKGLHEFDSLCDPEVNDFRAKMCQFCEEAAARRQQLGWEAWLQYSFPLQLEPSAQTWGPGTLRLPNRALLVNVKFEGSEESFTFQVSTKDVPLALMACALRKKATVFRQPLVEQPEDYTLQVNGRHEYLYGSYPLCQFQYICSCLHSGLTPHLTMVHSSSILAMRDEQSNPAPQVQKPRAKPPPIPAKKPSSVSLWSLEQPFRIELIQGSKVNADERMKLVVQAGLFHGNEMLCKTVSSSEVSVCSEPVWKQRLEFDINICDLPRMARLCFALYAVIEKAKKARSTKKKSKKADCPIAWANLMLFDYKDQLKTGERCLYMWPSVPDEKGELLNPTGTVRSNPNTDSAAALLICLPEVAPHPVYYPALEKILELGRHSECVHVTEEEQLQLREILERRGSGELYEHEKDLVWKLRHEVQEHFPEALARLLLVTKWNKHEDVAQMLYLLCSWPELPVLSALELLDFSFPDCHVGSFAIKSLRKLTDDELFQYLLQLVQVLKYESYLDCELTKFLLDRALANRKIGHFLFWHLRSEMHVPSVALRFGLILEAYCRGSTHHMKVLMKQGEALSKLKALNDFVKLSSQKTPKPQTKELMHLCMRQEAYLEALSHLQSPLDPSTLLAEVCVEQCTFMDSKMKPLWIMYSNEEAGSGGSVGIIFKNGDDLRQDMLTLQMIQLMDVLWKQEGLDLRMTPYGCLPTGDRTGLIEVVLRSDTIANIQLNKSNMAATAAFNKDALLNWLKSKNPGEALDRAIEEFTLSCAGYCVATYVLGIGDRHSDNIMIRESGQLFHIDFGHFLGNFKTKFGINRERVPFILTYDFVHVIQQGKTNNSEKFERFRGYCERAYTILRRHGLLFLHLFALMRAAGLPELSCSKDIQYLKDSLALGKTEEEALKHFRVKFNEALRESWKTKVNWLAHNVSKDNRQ

Usually IC50 stands for the midpoint of a concentration-inhibition curve. Lower therefore signals higher potency. With `COc1ncc(N2CCOc3ccc(O[C@H]4CCN(C(=O)C5CCS(=O)(=O)C5)C4)cc32)cc1C` (single isomer, unassigned) [Example B27, (1,1-Dioxo-tetrahydro-1lambda*6*-thiophen-3-yl)-{(S)-3-[4-(6-methoxy-5-methyl-pyridin-3-yl)-3,4-dihydro-2H-benzo[1,4]oxazin-6-yloxy]-pyrrolidin-1-yl}-methanone], the half-maximal inhibitory concentration (IC50) against PI3K delta stood at 55 nM; against PI3K alpha, 2510 nM. In the case of `COc1ncc(N2CCOc3ccc(O[C@H]4CCN(C(=O)C5CCS(=O)(=O)C5)C4)cc32)cc1C` (single isomer, unassigned) [Example B28, (1,1-Dioxo-tetrahydro-1lambda*6*-thiophen-3-yl)-{(S)-3-[4-(6-methoxy-5-methyl-pyridin-3-yl)-3,4-dihydro-2H-benzo[1,4]oxazin-6-yloxy]-pyrrolidin-1-yl}-methanone], the IC50 on PI3K delta worked out at 12 nM; on PI3K alpha, 788 nM. On the same counts, the results for `COc1ncc(N2CCOc3ccc(O[C@H]4CCN(C(=O)C5CCOC5)C4)cc32)cc1C#N` (single isomer, unassigned) [Example D28] are 5 nM and 411 nM. Consider `COc1ncc(N2CCOc3ccc(O[C@H]4CCN(C(=O)C5CCOC5)C4)cc32)cc1C#N` (single isomer, unassigned) [Example D29], for which the IC50 was 3 nM on PI3K delta and 534 nM against PI3K alpha. Take `COc1ncc(N2CCOc3ccc(O[C@H]4CCN(C(=O)C5CCC(OC)CC5)C4)cc32)cc1C#N` (single isomer, unassigned) [Example D35]: the IC50 on PI3K delta is less than 3 nM; against PI3K alpha it was 414 nM.

`COc1ncc(N2CCOc3ccc(O[C@H]4CCN(C(=O)C5CCC(OC)CC5)C4)cc32)cc1C#N` (single isomer, unassigned) [Example D36]: the IC50 against PI3K alpha was found to be 346 nM.

With `Cc1cc(N2CCOc3ccc(O[C@H]4CCN(C(=O)C5COCCO5)C4)cc32)cnc1S(C)(=O)=O` (single isomer, unassigned) [Example H3], the IC50 against PI3K delta worked out at 8 nM; on PI3K alpha, 559 nM. Regarding `Cc1cc(N2CCOc3ccc(O[C@H]4CCN(C(=O)C5COCCO5)C4)cc32)cnc1S(C)(=O)=O` (single isomer, unassigned) [Example H4], the IC50 on PI3K delta stood at 11 nM; against PI3K alpha, 848 nM. On to `COc1cc(N2CCOc3ccc(O[C@H]4CCN(C(=O)C5COCCO5)C4)cc32)cnc1OC` (single isomer, unassigned) [Example H5], for which the IC50 against PI3K delta turned out to be 11 nM; at PI3K alpha, 477 nM. As to `COc1cc(N2CCOc3ccc(O[C@H]4CCN(C(=O)C5COCCO5)C4)cc32)cnc1OC` (single isomer, unassigned) [Example H6], the IC50 against PI3K delta stood at 53 nM; against PI3K alpha it was 846 nM.

`COc1cc(N2CCOc3ccc(O[C@H]4CCN(C(=O)C5CCS(=O)(=O)C5)C4)cc32)cnc1OC` (single isomer, unassigned) [Example H9]: the IC50 on PI3K delta worked out at 11 nM; against PI3K alpha, 616 nM. For `COc1cc(N2CCOc3ccc(O[C@H]4CCN(C(=O)C5CCS(=O)(=O)C5)C4)cc32)cnc1OC` (single isomer, unassigned) [Example H10], in that order: 18 nM and 727 nM.

Regarding `COc1ncc(N2CCOc3ccc(O[C@H]4CCN(C(=O)C5CCS(=O)(=O)C5)C4)cc32)cc1F` (single isomer, unassigned) [Example H11], the figures for the IC50 against PI3K delta and against PI3K alpha were 8 nM and 299 nM, respectively.

As to `COc1ncc(N2CCOc3ccc(O[C@H]4CCN(C(=O)C5CCS(=O)(=O)C5)C4)cc32)cc1F` (single isomer, unassigned) [Example H12], the IC50 against PI3K delta is 7 nM; at PI3K alpha, 530 nM. Take `COc1ncc(N2CCOc3ccc(O[C@H]4CCN(C(=O)C5CCS(=O)(=O)C5)C4)cc32)cc1Cl` (single isomer, unassigned) [Example H13]: the half-maximal inhibitory concentration (IC50) was found to be 9 nM on PI3K delta and 387 nM against PI3K alpha.

Consider `COc1ncc(N2CCOc3ccc(O[C@H]4CCN(C(=O)C5CCS(=O)(=O)C5)C4)cc32)cc1Cl` (single isomer, unassigned) [Example H14], for which the IC50 against PI3K delta worked out at 5 nM; against PI3K alpha, 103 nM. As to `COc1ncc(N2CCOc3ccc(O[C@H]4CCN(C(=O)C5COCCO5)C4)cc32)cc1F` (single isomer, unassigned) [Example H15], the half-inhibitory concentration (IC50) on PI3K delta is 8 nM; at PI3K alpha, 724 nM. `Cc1ncc(N2CCOc3ccc(O[C@H]4CCN(C(=O)C5CCOCC5)C4)cc32)cc1[N+](=O)[O-]` [Example A4, {(S)-3-[4-(6-Methyl-5-nitro-pyridin-3-yl)-3,4-dihydro-2H-benzo[1,4]oxazin-6-yloxy]-pyrrolidin-1-yl}-(tetrahydro-pyran-4-yl)-methanone] showed an IC50 at PI3K alpha greater than 9100 nM. With `COCc1ccc(N2CCOc3ccc(O[C@H]4CCN(C(=O)C5CCOCC5)C4)cc32)cn1` [Example A20, {(S)-3-[4-(6-Methoxymethyl-pyridin-3-yl)-3,4-dihydro-2H-benzo[1,4]oxazin-6-yloxy]-pyrrolidin-1-yl}-(tetrahydro-pyran-4-yl)-methanone], the IC50 against PI3K alpha is greater than 9100 nM. On the same count and under the same terms, as for `O=C(C1CCOCC1)N1CC[C@H](Oc2ccc3c(c2)N(c2ccnc(C(F)(F)F)c2)CCO3)C1` [Example A21, (Tetrahydro-pyran-4-yl)-{(S)-3-[4-(2-trifluoromethyl-pyridin-4-yl)-3,4-dihydro-2H-benzo[1,4]oxazin-6-yloxy]-pyrrolidin-1-yl}-methanone], the figure is 8430 nM; as for `CCC(=O)N1CC[C@H](Oc2ccc3c(c2)N(c2ccc(OC)c(S(=O)(=O)N4CCOCC4)c2)CCO3)C1` [Example A25, 1-((S)-3-{4-[4-Methoxy-3-(morpholine-4-sulfonyl)-phenyl]-3,4-dihydro-2H-benzo[1,4]oxazin-6-yloxy}-pyrrolidin-1-yl)-propan-1-one], 5760 nM. Consider `CCC(=O)N1CC[C@H](Oc2ccc3c(c2)N(c2ccc(OC)c(S(=O)(=O)N4CCN(C)CC4)c2)CCO3)C1` [Example A27, 1-((S)-3-{4-[4-Methoxy-3-(4-methyl-piperazine-1-sulfonyl)-phenyl]-3,4-dihydro-2H-benzo[1,4]oxazin-6-yloxy}-pyrrolidin-1-yl)-propan-1-one], for which the IC50 at PI3K alpha was greater than 9100 nM. On the same count and under the same terms, with `CCC(=O)N1CC[C@H](Oc2ccc3c(c2)N(c2ccnc(C#N)c2)CCO3)C1` [Example B3, 4-[6-((S)-1-Propionyl-pyrrolidin-3-yloxy)-2,3-dihydro-benzo[1,4]oxazin-4-yl]-pyridine-2-carbonitrile] the figure was greater than 9100 nM.

In the case of `[2H]C1([2H])COc2ccc(O[C@H]3CCN(C(=O)c4cn(C)cn4)C3)cc2N1c1cnc(OC)c(C#N)c1` [Example B30, 2-Methoxy-5-{6-[(S)-1-(1-methyl-1H-imidazole-4-carbonyl)-pyrrolidin-3-yloxy]-3,3-dideutero-2,3-dihydro-benzo[1,4]oxazin-4-yl}-nicotinonitrile], the IC50 against PI3K delta worked out at 15.5 nM. As for `CN(C)c1cc(N2CCOc3ccc(O[C@H]4CCN(C(=O)C5CCOCC5)C4)cc32)cnc1S(C)(=O)=O` [Example B78, {(S)-3-[4-(5-Dimethylamino-6-methanesulfonyl-pyridin-3-yl)-3,4-dihydro-2H-benzo[1,4]oxazin-6-yloxy]-pyrrolidin-1-yl}-(tetrahydro-pyran-4-yl)-methanone], at PI3K alpha, the IC50 amounted to 243 nM. Take `COc1ncc(N2CCOc3ccc(O[C@H]4CCN(C(=O)c5cnon5)C4)cc32)cc1C#N` [Example C7, 5-{6-[(S)-1-(Furazan-3-carbonyl)-pyrrolidin-3-yloxy]-2,3-dihydro-benzo[1,4]oxazin-4-yl}-2-methoxy-nicotinonitrile]: the 50% inhibitory concentration (IC50) at PI3K alpha was greater than 9100 nM. On to `COc1ncc(N2CCOc3ccc(O[C@H]4CCN(C(=O)C5CCOCC5)C4)cc32)cc1C#N` [Example D4, 2-Methoxy-5-{6-[(S)-1-(tetrahydro-pyran-4-carbonyl)-pyrrolidin-3-yloxy]-2,3-dihydro-benzo[1,4]oxazin-4-yl}-nicotinonitrile], for which the 50% inhibitory concentration (IC50) against PI3K alpha was found to be 236 nM. The same measure, in the same setting: as for `COc1ncc(N2CCOc3ccc(O[C@H]4CCN(C(=O)CN5CCOCC5)C4)cc32)cc1C#N` [Example D7, 2-Methoxy-5-{6-[(S)-1-(2-morpholin-4-yl-acetyl)-pyrrolidin-3-yloxy]-2,3-dihydro-benzo[1,4]oxazin-4-yl}-nicotinonitrile], the figure is 234 nM. `COc1ncc(N2CCOc3ccc(O[C@H]4CCN(C(=O)C5CCN(C)CC5)C4)cc32)cc1C#N` [Example D14, 2-Methoxy-5-{6-[(S)-1-(1-methyl-piperidine-4-carbonyl)-pyrrolidin-3-yloxy]-2,3-dihydro-benzo[1,4]oxazin-4-yl}-nicotinonitrile] registered an IC50 at PI3K alpha of 415 nM. The same measure, in the same setting: as for `COc1ncc(N2CCOc3ccc(N[C@H]4CCN(C(=O)C5CCOCC5)C4)cc32)cc1C#N` [Y, 2-Methoxy-5-{6-[(S)-1-(tetrahydro-pyran-4-carbonyl)-pyrrolidin-3-ylamino]-2,3-dihydro-benzo[1,4]oxazin-4-yl}-nicotinonitrile], the figure is 1920 nM.

The values above are taken from US9539260B2, “Dihydro-benzo-oxazine and dihydro-pyrido-oxazine derivatives” (Novartis AG, priority 2012, dated 2017).
